According to US20250051266A1, “Novel GLV-Phenolamide: Biosynthesis and Function in Protecting Plants from Herbivore Attack” (Max-Planck-Gesellschaft zur Förderung der Wissenschaften …, priority 2021, published 2025):
“Also recorded” adds a separate entry of the source.

Legend:
Empoasca decipiens = test: In vitro Empoasca non-choice (direct feeding) assay on artificial diet; assay type: in vivo; settings: physiologically relevant concentrations (CoP 7 μM, CP 100 μM, FP 10 μM) in 10% glucose solution
Protocol: FIG. 18 Mortality rates of in vitro Empoasca non-choice assays (n=4, 25 Empoasca leafhoppers per replicate) in which Empoasca were fed for 6 h with either 1 μM m/z 347.19 synthesized by using NaPPO1/NaPPO2 and CP and Z3H and diluted in 10% glucose solution or with 10% glucose as control (top). Empoasca in planta choice assays (n=8) conducted with VIGS plants of EV, PPO1, PPO2 and AT1 (bottom).
To test if CPH is responsible for Empoasca resistance, E. decipiens were fed with physiologically relevant concentrations of 1 μM (estimated from field-collected elicited leaves) of NMR-confirmed CPH in diets containing 10% glucose in vitro. […] NaAT1 expression was silenced in N. attenuata plants using VIGS, which disrupted the production of both CP and the CPH (Li et al., Proc Natl Acad Sci USA 112, E4147-4155 (2015)) (FIG. 13).
Empoasca feeding assays: The survival rate of Empoasca feeding on artificial diet (10% 5 sucrose in water) supplemented with caffeoylputrescine (CP, 100 μM), coumaroylputrescine (CoP, 7 μM), feruloylputrescine (FP, 10 μM), or the m/z 347.19 hexenyl derivative of CP (CPH, 1 μM) was recorded every 1 h overnight. The artificial feeding devices consisted of a 50-mL Falcon tube with a 7-mm hole drilled into the conical bottom through which the leafhoppers were aspi-rated into the tube and which then was covered with Parafilm punctured with needles to create ventilation holes. The large opening of the Falcon tube was covered with a double layer of Parafilm containing the liquid diet (100 μL). The artificial feeding devices were placed upside down with the liquid diet side down on a White Light Box (STRATAGENE) to provide bottom-light illu-mination.

Empoasca leafhoppers = test: In vivo Empoasca choice assay, compounds infiltrated into irMYC2 leaves; design: species or system Empoasca decipiens; settings: synthetic CoP 7 μM, CP 100 μM, FP 10 μM in 0.1% DMSO infiltrated into irMYC2 leaves
Protocol: The spermi-dine-derived metabolites could be excluded as mediators of Empoasca nonhost resistance based on the lack of responses of leafhoppers to the irDH29 and irCV86 lines (FIG. 5). To further explore the involvement of CoP, CP and FP, in vivo Empoasca choice assays were conducted by individually infiltrating physiologically relevant concentrations of synthetic CoP (7 μM), CP (100 μM) and FP (10 μM) into leaves of irMYC2 plants which were devoid of elicited phenolamides (FIG. 9 and FIG. 34).
Two replicates of the 650 RILs from a 26-parent MAGIC population and their 26 parental 5 lines were planted at the WCCER field station, Prescott, Arizona, USA. To elicit a standardized herbivory response, leaves of all RILs, which were in the early-flowering stage were wounded and immediately treated with diluted Manduca sexta oral secretions (W+OS) or left untreated (control) and harvested on dry ice at 1 h and 72h. One week after metabolite sampling, all plants of the field population were screened for natural Empoasca leafhopper numbers and damage; these leafhoppers had opportunistically sampled the N. attenuata plants from neighboring native cu-cumber hostplants. The mQTL and eQTL mapping between SNPs and the relative abundance of each compound or transcript using a set of 646 RILs of the MAGIC population was done with the R package software GAPIT using General linear models (GLM). The multi-omics co-association network was built from correlations among metabolomes, transcriptomes, phytohormones and SNPs. […] Metabolome diversity and specialization and metabolic specificity was calculated using information theory by consider-ing the Shannon entropy of the idMS/MS frequency distributions. […] OS-induced volatile emissions were collected using polydimethylsiloxane (PDMS) tubing from 650 MAGIC RILs planted in the main MPI-CE glasshouse and analyzed bythermal desorption-gas chromatography-mass spectrometry (TD-GC-MS). […]

## N-coumaroylputrescine [CoP]
Empoasca decipiens
  changes in mortality rates of E. decipiens compared to glucose controls: no significant changes in mortality rates; also recorded: not affecting leafhopper behavior or performance
Empoasca leafhoppers
  preference of Empoasca for irMYC2 plants: did not alter the preference; also recorded: not affecting leafhopper behavior or performance
